Assay results: US11992506B2, “Stem cell derived pancreatic islet differentiation” (Vertex Pharmaceuticals Incorporated, priority 2021, dated 2024)
Values joined by “and” are separate entries in the source; they are usually repeats but may differ in a detail not shown here. Equal entries are not always repeated.

Columns and labels:
EZH2 = EZH2 (Homo sapiens, UniProt Q15910); settings: cited from earlier work
[1] = tested on: PDX1-positive, NKX-negative cells; test: Effects of differentiation agents on pancreatic islet cell differentiation (ISL1/NKX6.1 flow cytometry); type: cell-based; settings: for % of beta cells in S5D6 cell population: agents added to the base protocol on S4D5, S5D1, S5D2, FOXOi 1 μM, XAV 2 μM (present S5D1-4), TPB or PDBU 0.5 μM, XXI 2 μM
Experimental: FoxO1 inhibitor (FoxOi), Wnt inhibitor (XAV), Notch inhibitor (XXI), and/or PKC activator (PDBU or TPB) were tested for their effects on pancreatic islet cell differentiation.
PDX1-positive, NKX-negative cells were administered KGF (50 ng/ml), Sant-1 (250 nM), thiazovivin (2.5 μM), activin A (5 ng/ml), and retinoic acid (100 nM) for a period of six days (S4D1-S4D6) in a media including polyvinyl alcohol-80 (PVA-80) to generate a second population of cells. On day S4D5, the cells may also have been administered an additional reagent or combination of reagents as outlined in Table 5. After the six days, the second population of cells was administered XXI (2 μM), Alk5i (10 μM), GC-1 (1 μM), LDN-193189 (100 nM), thiazovivin (2.5 μM), staurosporine (3 nM), DZNEP (100 nM), Sant-1 (250 nM), retinoic acid (50 nM), and betacellulin (20 ng/ml) for two days (S5D1-S5D2) in a media comprising PVA-89. On days S5D1 and S5D2, the cells may also have been administered an additional reagent or combination of reagents as outlined in Table 5. On days S5D3-S5D6, the cells were administered XXI (2 μM), Alk5i (10 μM), GC-1 (1 μM), LDN-193189 (100 nM), thiazovivin (2.5 μM), staurosporine (3 nM), and DZNEP (100 nM). Cells were collected for analysis on day […].

SC-islet cells = test: Effect of additional FGF2 in stage 6 of differentiation; type: cell-based, human; settings: FGF2 100 ng/ml added to stage 6 media (Media A) of Protocol 3
Experimental: SC-islet cells were differentiated using Protocol 1, Protocol 2, Protocol 3, or Protocol 3 with the addition of FGF2 (at 100 ng/ml) in stage 6 media (Media A shown in Table 6). Cells were collected on S6D3, S6D7, and […] for analysis. Cells were also tested for insulin content (FIG. 35A) and glucagon content (FIG. 35B).

EZH2, sequence (Q15910 whole entry, species assumed): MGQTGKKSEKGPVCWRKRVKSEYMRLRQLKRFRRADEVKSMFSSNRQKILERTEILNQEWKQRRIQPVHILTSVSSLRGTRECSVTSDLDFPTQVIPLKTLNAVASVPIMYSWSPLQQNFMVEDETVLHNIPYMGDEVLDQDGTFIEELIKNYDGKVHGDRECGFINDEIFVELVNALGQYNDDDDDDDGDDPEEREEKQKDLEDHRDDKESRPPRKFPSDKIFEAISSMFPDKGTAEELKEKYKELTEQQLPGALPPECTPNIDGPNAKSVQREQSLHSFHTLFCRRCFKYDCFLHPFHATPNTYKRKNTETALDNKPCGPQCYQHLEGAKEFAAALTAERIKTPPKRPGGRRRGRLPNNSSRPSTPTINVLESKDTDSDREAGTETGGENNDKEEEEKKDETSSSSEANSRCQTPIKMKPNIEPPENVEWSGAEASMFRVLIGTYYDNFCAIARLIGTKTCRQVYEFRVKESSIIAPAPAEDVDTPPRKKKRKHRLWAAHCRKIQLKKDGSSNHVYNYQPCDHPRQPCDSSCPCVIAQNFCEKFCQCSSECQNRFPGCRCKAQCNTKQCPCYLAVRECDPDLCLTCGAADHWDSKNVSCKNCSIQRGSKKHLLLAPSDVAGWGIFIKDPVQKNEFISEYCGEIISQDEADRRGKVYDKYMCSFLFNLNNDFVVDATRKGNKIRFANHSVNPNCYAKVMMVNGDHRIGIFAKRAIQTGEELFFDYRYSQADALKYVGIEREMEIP
EZH2, sequence (O75530 whole entry partner, species assumed): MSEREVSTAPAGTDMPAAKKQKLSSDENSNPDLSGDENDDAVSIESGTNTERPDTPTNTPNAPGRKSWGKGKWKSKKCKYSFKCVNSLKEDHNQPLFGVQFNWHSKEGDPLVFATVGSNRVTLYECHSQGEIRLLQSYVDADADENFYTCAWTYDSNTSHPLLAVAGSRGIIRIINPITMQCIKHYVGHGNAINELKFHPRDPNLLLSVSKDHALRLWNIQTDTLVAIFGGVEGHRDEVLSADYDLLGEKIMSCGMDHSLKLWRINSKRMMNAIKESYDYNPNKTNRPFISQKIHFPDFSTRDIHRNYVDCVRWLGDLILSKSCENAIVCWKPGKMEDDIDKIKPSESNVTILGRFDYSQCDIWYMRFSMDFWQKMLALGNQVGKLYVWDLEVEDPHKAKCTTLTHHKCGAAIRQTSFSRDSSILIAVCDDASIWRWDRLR
EZH2, sequence (Q15022 whole entry partner, species assumed): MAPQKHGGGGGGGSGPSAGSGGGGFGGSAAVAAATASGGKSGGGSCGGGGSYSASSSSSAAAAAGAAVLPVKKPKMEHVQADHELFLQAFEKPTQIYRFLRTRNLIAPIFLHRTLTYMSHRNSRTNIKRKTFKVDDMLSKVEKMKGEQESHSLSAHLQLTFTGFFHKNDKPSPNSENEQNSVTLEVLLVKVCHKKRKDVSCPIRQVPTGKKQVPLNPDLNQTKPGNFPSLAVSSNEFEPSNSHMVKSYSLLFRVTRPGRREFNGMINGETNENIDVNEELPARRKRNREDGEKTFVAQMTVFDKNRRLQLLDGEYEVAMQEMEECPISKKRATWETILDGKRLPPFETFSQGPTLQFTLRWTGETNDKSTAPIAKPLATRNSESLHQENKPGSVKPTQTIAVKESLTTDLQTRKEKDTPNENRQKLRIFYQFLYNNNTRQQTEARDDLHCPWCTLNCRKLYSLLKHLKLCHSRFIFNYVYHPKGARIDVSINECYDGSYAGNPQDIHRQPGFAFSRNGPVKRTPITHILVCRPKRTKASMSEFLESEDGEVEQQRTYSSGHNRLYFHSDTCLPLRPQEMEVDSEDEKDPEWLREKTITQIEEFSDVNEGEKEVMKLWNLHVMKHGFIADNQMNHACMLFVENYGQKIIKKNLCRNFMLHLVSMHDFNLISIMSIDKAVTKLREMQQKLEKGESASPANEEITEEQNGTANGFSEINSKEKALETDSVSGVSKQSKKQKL

CC[C@H](C)n1cc(C)c2c(C(=O)NCc3c(C)cc(C)[nH]c3=O)cc(-c3ccc(N4CCNCC4)nc3)cc21 [GSK126]
selectivity over EZH1 (EZH2; SAM-competitive EZH2 inhibitor): 150 fold

CC(C)[C@H]1C(=O)N[C@H](CO)Cc2cc(NC(=O)/C=C/C=C/c3ccc(C(F)(F)F)cc3)ccc2N1C [TPB, ((2S,5S)-(E,E)-8-(5-(4-(Trifluoromethyl)phenyl)-2,4-pentadienoylamino)benzolactam)]
beta cell production (in words) ([1]; agents added on S4D5 and/or S5, FIGS. 9-15): did not result in more beta cell production | % of beta cells in S5D6 cell population [1]: 17%

CCn1cc(C(=O)O)c(=O)c2c(N)c(F)c(NC3CCCCC3)cc21 [FOXOi]
% of beta cells in S5D6 cell population [1]: 19% and 13%

FGF2: growth factor from the FGF family, added at 100 ng/ml in stage 6 media
glucagon-expressing cells (SC-alpha cells) (SC-islet cells): increases

CCCc1cc(C)[nH]c(=O)c1CNC(=O)c1cc(-c2ccc(N3CCN(C(C)C)CC3)nc2)cc2c1cnn2C(C)C [UNC1999]
selectivity compared with GSK126 (EZH2; analogue of GSK126): less selective

Oc1nc(-c2ccc(C(F)(F)F)cc2)nc2c1CSCC2 [XAV]
% of beta cells in S5D6 cell population [1]: 5%

CCCC(=O)O[C@@H]1[C@@H](C)[C@@]2(O)[C@@H](C=C(CO)C[C@]3(O)C(=O)C(C)=C[C@@H]23)[C@@H]2C(C)(C)[C@]12OC(=O)CCC [PDBU, Phorbol 12,13-dibutyrate]
% of beta cells in S5D6 cell population [1]: 28%
